From patent publication US20100119483A1, “PEPTIDE VIRAL ENTRY INHIBITORS” (Schering Corporation, priority 2004, published 2010)
Ends that are not written are not given here.

Columns and labels:
HCV pseudoparticles = assay: HCV pseudoparticle (HCVpp) entry assay in Huh7 hepatoma cells, luciferase readout; assay type: cell-based, hepatitis C virus; details: peptide library screen, first screened at 100 ug/ml; cell entry inhibition vs uninhibited control
Procedure, shortened: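 Huh7 cells were pre-treated with peptide for 1 h at 37 °C before exposure to HCV E1/E2-pseudotyped HIV luciferase particles made in 293T cells, followed by 72 h culture and luciferase readout. Peptides were tested at 10 points, 3-fold, from 100 ug/ml; particles lacking envelope served as non-specific entry control.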

[1] = tested on: amphotropic murine leukemia virus; assay: AMLV pseudotyped virus entry counter-screen, same infection protocol; assay type: cell-based; details: peptide library screen; cell entry inhibition vs uninhibited control
Procedure, shortened: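 Huh7 hepatoma cells pre-incubated with peptide 1 h at 37 °C, then infected with AMLV pseudotyped virus and cultured 72 h at 37 °C, 5% CO2 before luciferase read-out. Peptides screened at 100 ug/ml, then 10-point 3-fold titrations from 100 ug/ml.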

Row | Substance | HCVpp % inh (HCV pseudoparticles) | AMLVpp % inh [1]
1 | T-N-G-S-W-H-I-N-R-T-A-L-N-C-N-D (TNGSWHINRTALNCND; HCV peptide) [SEQ ID NO: 35] | 29% | 30%
2 | T-R-G-E-R-C-N-L-E-D-R-D-R-S-E-L [SEQ ID NO: 68] | 13% | −7%
3 | T-R-P-P-Q-G-N-W-F-G-C-T-W-M-N-S [SEQ ID NO: 53] | 59% | −42%
4 | T-T-T-I-R-R-H-V-D-L-L-V-G-A-A-A [SEQ ID NO: 12] | 31% | −5%
5 | V-C-A-C-L-W-M-M-L-L-I-A-Q-A-E-A [SEQ ID NO: 80] | 16% | 7%
6 | V-D-G-G-T-Y-V-T-G-G-T-M-A-K-N-T [SEQ ID NO: 30] | 2% | −9%
7 | V-D-L-L-V-G-A-A-A-L-C-S-A-M-Y-V [SEQ ID NO: 13] | 39% | −13%
8 | V-G-G-V-E-H-R-L-E-A-A-C-N-W-T-R (VGGVEHRLEAACNWTR; HCV peptide) [SEQ ID NO: 66] | 22% | 34%
9 | V-H-K-F-N-S-S-G-C-P-E-R-M-A-S-C [SEQ ID NO: 39] | −11% | −15%
10 | V-M-L-L-F-A-G-V-D-G-G-T-Y-V-T-G [SEQ ID NO: 29] | −22% | 11%
11 | V-P-C-V-R-E-N-N-S-S-R-C-W-V-A-L [SEQ ID NO: 8] | −22% | 14%
12 | V-V-D-V-Q-Y-L-Y-G-I-G-S-A-V-V-S [SEQ ID NO: 75] | 39% | 44%
13 | V-V-V-G-T-T-D-R-F-G-V-P-T-Y-S-W [SEQ ID NO: 49] | 37% | −22%
14 | V-Y-E-A-A-D-M-I-M-H-T-P-G-C-V-P [SEQ ID NO: 6] | −13% | 10%
15 | W-F-G-C-T-W-M-N-S-T-G-F-T-K-T-C (WFGCTWMNSTGFTKTC; HCV peptide) [SEQ ID NO: 54] | 39% | −15%
16 | W-G-V-L-A-G-L-A-Y-Y-S-M-V-G-N-W [SEQ ID NO: 26] | 50% | 27%
17 | Y-C-F-T-P-S-P-V-V-V-G-T-T-D-R-F (YCFTPSPVVVGTTDRF; not fully specified (C-terminus); printed as Y-C-F-T-P-S-P-V-V-V-G-T-T-D-R-F) [SEQ ID NO: 48] | 6% | 21%
18 | Y-E-V-R-N-V-S-G-V-Y-H-V-T-N-D-C [SEQ ID NO: 3] | 35% | 18%
19 | Y-G-I-G-S-A-V-V-S-F-A-I-K-W-E-Y [SEQ ID NO: 76] | 7% | 24%
20 | Y-V-G-D-L-C-G-S-V-F-L-V-A-Q-L-F [SEQ ID NO: 15] | 16% | −31%
